We go through 1 compound from patent US10047151B2, “Methods for the treatment of cancer and inflammatory diseases using cereblon as a predictor” (Celgene Corporation, priority 2011, dated 2018).

Holding throughout (format): cell-based
The subject of test [1] is U266B1 cells. Kind of test: Gene expression profile by microarray in U266B1 cells. To be noted: negative control siRNA-transfected U266B1 cells; pomalidomide 1 μM, lenalidomide 10 μM; ±1.7 fold, P<0.05. The protocol:
Gene expression profile using microarray technology identified 759 or 609 genes differentially modulated in negative control siRNA-transfected U266B1 cells treated with pomalidomide (1 μM) or lenalidomide (10 μM) compared to DMSO treated control (±1.7 fold; P<0.05 ANOVA p-value) (FIGS. 5A & 5B).

Test [2] deals with CRBN. The test is described as follows: CRBN mRNA and protein expression after drug treatment (RT-PCR, Western blot). To be noted: H929 and U266B1 cells; pomalidomide 1 μM, lenalidomide 10 μM. On the technique in general: A western blot detects proteins with antibodies after separation by electrophoresis.
The subject of test [3] is NF-κB. Kind of test: NF-κB-driven luciferase reporter gene assay in DLBCL cells. To be noted: OCI-Ly10 and U2932; 2 day drug treatment. How it is done:
For the NF-κB-driven luciferase reporter gene assay, cells were transfected with the pGL4.32 [luc2P/NF-κB-RE/Hygro] plasmid (Promega, Madison, Wis.) using Nucleofector kit V and program 013 according to the manufacturer's protocol (Amaxa Biosystems, Gaithersburg, Md.). After 24 hours of transfection, cells were treated with test agents for 2 days and lysates were prepared using the Dual-Glo® Luciferase Assay System (Promega). Luciferase activities of each sample were measured using a TopCount NXT Microplate Scintillation and Luminescence Counter (Packard BioScience).
To knockdown IRF4, cells were transfected with Silencer® Select siRNA (small interfering RNA, Applied Biosystems) directed against IRF4, CRBN, or Silencer® Select Negative Control siRNAs at a final concentration of 0.2-1 μM using Nucleofector® Kit V for transfection. For IRF4 overexpression, cells were transfected with IRF4- or green fluorescent protein (GFP)-cytomegalovirus (CMV) expression plasmids (OriGene Technologies, Rockville, Md.) for 24 h using the Cell Line Nucleofector kit V as above-mentioned. After 24 hours of transfection, cells were treated with lenalidomide for 2 days before luciferase assay, RT-PCR gene expression analysis and Western blot. […]
On the technique in general: In a reporter assay the amount or activity of a reporter protein is the signal.

The test system of test [4] is U266. The test is described as follows: Ubiscan ubiquitinated peptide quantification in U266. From the text: The effects of lenalidomide and pomalidomide on protein ubiquination were investigated using CST Ubiscan technology. Treated samples were sent to Cell Signaling Technology for ubiquinated peptide enrichment and quantification by LC/MS/MS. […] In the MG132 combo, more ubiquinated peptides are observed (compared with their controls). […] These peptides correspond to 176 unique proteins. Top few groups are: nucleosome, chromatin, protein-DNA complex assembly, Histone H2A. Among the 176 proteins, we found five proteins that belong to “ubiquitin-protein ligase activity” category, they are MDM2, HERC2, UBE2D3 (only by pomalidomide), UBE2N (lenalidomide only), UBE2M (both). Results for hits categorized by conditions are shown in FIGS. 8 & 9 (without MG132) and FIGS. 10 & 11 (with MG132).

The test system of test [5] is IRF4. The test is described as follows: IRF4 protein expression in ABC-DLBCL cells (Western blot). How it is done:
(§1) Cells were treated with test compounds or 0.1% DMSO for indicated times. Following incubation, cells were collected, pelleted with centrifugation, and immediately lysed in 0.1 ml lysis buffer containing 10 mM Tris-HCl pH 8.0, 10 mM EDTA, 150 mM NaCl, 1% NP-40, 0.5% SDS, 1 mM DTT, 1 mM Na3VO4, plus Complete protease inhibitor cocktail (Roche Applied Science, Indianapolis, Ind.), then processed with a Qiashredder™ (Qiagen, Valencia, Calif.) for 1 minute and frozen on dry ice. Samples were diluted with 6×SDS sample buffer and then boiled for 5 min. Approximately 30 μl of this mixture was loaded per lane on a Criterion Precast 4-12% Tris-HCl gel (Bio-Rad, Hercules, Calif.), electrophoresed, and transferred to nitrocellulose membranes (Bio-Rad, Hercules, Calif.). The membranes were blocked for 1 hour at room temperature using blocking buffer (LI-COR Biosciences, Lincoln, Nebr.), then incubated overnight at 4° C. with antibodies against either BCL-10, IRF4, CRBN or β-actin. Membranes were washed and incubated with IRDye Secondary Antibodies (1:30,000) for 1 hour at room temperature. A standard protocol was then followed for signal detection, using the Odyssey® Infrared Imaging System and software (LI-COR Biosciences, Lincoln, Nebr.).
To understand the molecular mechanism of lenalidomide on ABC-DLBCL cells, the effects of lenalidomide on IRF4 expression in these cells were investigated. […] Lenalidomide-induced decrease of IRF4 expression occurred as early as 1 day of drug treatment, with similar kinetics to that of the inhibitors (zVRPR-fmk and LY-333,531, respectively) of MALT1 and PKCβ, two key enzymes involved in NF-κB activation upon BCR engagement in B cells.

Test [6] deals with CARD11-BCL-10-MALT1 (CBM) complex. Kind of test: MALT1-induced BCL-10 cleavage (CBM complex activity) in ABC-DLBCL cells. How it is done:
as §1
This mutation has been reported to cause constitutive formation and activation of CARD11-BCL-10-MALT1 (CBM) complex of BCR signaling pathway, leading to NF-κB overactivation in lymphoma cells. See Lenz, G., et al., Science 2008, 319: 1676-9; Thome, M. et al., Cold Spring Harb Perspect Biol. 2010; 2: a003004. To investigate the potential involvement of CBM complex in lenalidomide-induced IRF4 inhibition in these cells, the effect of lenalidomide on the complex activity was examined by measuring MALT1 paracaspase enzymatic activity. MALT1 is activated upon association with BCL-10 and CARD11 to form active CBM complex and then cleaves its binding partners, such as BCL-10.

For `Nc1cccc2c1CN(C1CCC(=O)NC1=O)C2=O` (stereo not drawn) [lenalidomide, 3-(4-amino-1-oxo-1,3-dihydro-isoindol-2-yl)-piperidine-2,6-dione], the “genes differentially modulated compared to DMSO treated control” value in test [1] is 609 genes. The “mRNA and protein expression of CRBN” value in test [2] is on record as “affected neither mRNA nor protein expression of CRBN significantly”. For the same compound, the “inhibition of transcriptional activity of NF-κB” value in test [3] is 32-56%. Further, in test [4], the “Ub-proteins increased in abundance” value was “IKZF3, RPL19, PCM1 and NEDD8”; the “proteins decreased in abundance” value is “GNB2L1 and HNRNPR”. The IRF4 levels entry in test [5] (OCI-Ly3 cells, 1-3 day treatments) was “neither lenalidomide nor the PKCβ inhibitor had any appreciable effect”. The IRF4 protein levels result in test [5] (sensitive cell lines U2932 and OCI-Ly10, treatment for 1-3 days) is listed as “significantly downregulate”. In test [6] (OCI-Ly3 cells), the BCL-10 cleavage result was “neither the PKCβ inhibitor nor lenalidomide had any effect”. For the same compound, the “MALT1-induced BCL-10 cleavage” value in test [6] (sensitive ABC-DLBCL cell lines OCI-Ly10 and U2932) is listed as “inhibited MALT1-induced BCL-10 cleavage in a concentration-dependent manner”.
